Laboratory results reported in PMC9959130, “Effects of Side Chain and Peptide Bond Modifications on the Targeting Properties of Stabilized Minigastrin Analogs” (Pharmaceuticals, 2023).
Like-named read-outs stand apart in the source and are kept apart here. Where a SMILES comes first, the peptide text is derived from it. [ ]: non-standard residue; d: D form. The star is where a group is joined. DOTA = O=C(O)CN1CCN(CC(=O)O)CCN(CC(=O)*)CCN(CC(=O)O)CC1; 1Nal = N[C@@H](Cc1cccc2ccccc12)C(=O)O; NMeNle = CCCC[C@H](NC)C(=O)O

Assays:
[1] = Binding to serum proteins (incubation in human serum, Sephadex G-50 size exclusion chromatography); assay type: in vitro ADME; conditions: radiolabeled peptide (111In where no radiometal named), 37 °C, 24 h after incubation, Sephadex G-50, γ-counter, n = 2; for Binding to Serum Proteins (%): 500 pmol/mL
Description: Protein binding was determined by incubation of the radiolabeled peptides in human serum at 37 °C (500 pmol/mL, n = 2). For the time points of 1, 4, and 24 h after incubation, samples of 25 µL were subjected to Sephadex G-50 size exclusion chromatography (GE Healthcare Illustra, Little Chalfont, UK). The column and the eluate were measured using the γ-counter and the percentage of protein binding was calculated.

[2] = Distribution coefficient (LogD) in octanol/PBS; assay type: physicochemical; conditions: radiolabeled peptide (111In-labeled where the label names no radiometal), shake-flask octanol/PBS, 100 pmol/mL, 15 min shaking at 1500 rpm, γ-counter, mean ± SD, n = 8
Description: The distribution coefficient (LogD) in octanol/PBS was determined by mixing 0.5 mL of the radiolabeled DOTA peptides diluted in PBS (100 pmol/mL) and 0.5 mL octanol in a 1.5 mL microcentrifuge tube (n = 8). After shaking for 15 min (MS3 Basic, IKA, Staufen, Germany) at 1500 rpm and a waiting time of 10 min to ensure appropriate separation of the two phases, 100 µL aliquots of each phase were pipetted into 4.5 mL tubes. The tubes were measured using a γ-counter (2480 Wizard2 3″, PerkinElmer Life Sciences and Analytical Instruments, formerly Wallac Oy, Turku, Finland) and the LogD value was determined using following equation: LogD=Log(cpmoctanol phase/cpmPBS phase)

[3] = In vitro stability in human serum (intact radiopeptide by radio-HPLC); assay type: in vitro ADME; conditions: radiolabeled peptide (111In where no radiometal named), fresh human serum, 37 °C, 24 h after incubation, n = 2; for Intact Radiopeptide in Human Serum (%): 1000 pmol/mL
Description: In vitro stability studies were performed in human serum (n = 2). The radiolabeled peptides (1000 pmol/mL) were incubated at 37 °C and a sample of 100 μL was taken at 1, 4, and 24 h after incubation. After the precipitation of proteins with ACN at 1:1.5 (v/v), centrifugation (14,000 rpm, 2 min, centrifuge 5424, Eppendorf AG, Germany) and dilution with water at 1:1 (v/v), an aliquot of 100 μL of this solution was analyzed by HPLC. Radioligand breakdown was monitored and the percentage of intact radiopeptide was calculated using Chromeleon Dionex Software (Version 7.2.9.11323). Additionally, the radiolabeled peptides (1000 pmol/mL) were incubated in PBS (n = 1) at room temperature to confirm the complex stability as a control.

[4] = Biodistribution in BALB/c nude mice bearing A431-CCK2R/A431-mock xenografts; assay type: in vivo; conditions: female, athymic BALB/c nude, mouse, iv, 20 pmol, total radioactivity, ~20 pmol, 4 h p.i. (indium-111 or lutetium-177), mean ± SD n = 4; for tissue to tissue ratio at 4 h: BALB/c nude mice; for tissue uptake at 4 h: xenografted BALB/c nude mice, i.v.
Description: The overall biodistribution and tumor targeting properties of selected radiolabeled peptides were evaluated in female athymic BALB/c nude mice (Charles River, Sulzfeld, Germany, age of 7 to 9 weeks). After tumor induction with 2 × 10^6 A431-CCK2R or A431-mock cells (subcutaneously injected in 200 μL DMEM into the right and left flank) and a waiting period of 10–14 days (sufficient to achieve tumors of ∼0.25 g), mice were randomly divided into groups of four and treated with a bolus injection of 150 µL of the injectable solution containing the radiolabeled peptide via a lateral tail vein to achieve an injected radioactivity of 150–200 kBq and a total injected peptide amount of ~20 pmol (n = 4 for each radiopeptide). For DOTA-[(N-Me)1Nal^8]MGS5, additional biodistribution studies were performed with gallium-68 (~0.5 MBq, 20 pmol) and lutetium-177 (~0.5 MBq, 20 pmol). The animals were euthanatized by cervical dislocation at 1 h (gallium-68) or 4 h p.i. (indium-111/ lutetium-177). The tumors and other tissues (blood, lung, heart, muscle, spleen, intestine, liver, kidney, stomach, and pancreas) were dissected, weighed, and the radioactivity measured in the γ-counter. The rest of the body and a standard of the solution injected was also measured together with the collected samples. The percentage of injected activity per gram of tissue (% IA/g) and the tumor-to-organ activity ratio of selected tissues were calculated for each mouse and time point studied. Origin software (Microcal Origin 6.1, Northampton, MA, USA) was used for statistical analysis (independent t-test for two populations; significance level p < 0.05).

[5] = A431-CCK2R xenograft / blood, A431-CCK2R xenograft, read-out: tumor-to-organ ratio: blood
[6] = A431-CCK2R xenograft / stomach, A431-CCK2R xenograft, read-out: tumor-to-organ ratio: stomach
[7] = A431-CCK2R xenograft, read-out: Uptake in A431-CCK2R xenograft
[8] = A431-mock xenograft, read-out: Uptake in A431-mock xenograft
[9] = blood, read-out: Uptake in blood
[10] = heart, read-out: Uptake in heart
[11] = intestine, read-out: Uptake in intestine
[12] = kidneys, read-out: Uptake in kidneys
[13] = liver, read-out: Uptake in liver
[14] = muscle, read-out: Uptake in muscle
[15] = pancreas, read-out: Uptake in pancreas
[16] = spleen, read-out: Uptake in spleen
[17] = stomach, read-out: Uptake in stomach
[18] = A431-CCK2R xenograft / kidney, A431-CCK2R xenograft, read-out: tumor-to-organ ratio: kidney

| SMILES | Binding to Serum Proteins (%) [1] [%] | LogD [2] | Intact Radiopeptide in Human Serum (%) [3] [%] | tissue to tissue ratio at 4 h [4, 5] | tissue to tissue ratio at 4 h [4, 6] | tissue uptake at 4 h [4, 7] [%ID/g] | tissue uptake at 4 h [4, 8] [%ID/g] | tissue uptake at 4 h [4, 9] [%ID/g] | tissue uptake at 4 h [4, 10] [%ID/g] | tissue uptake at 4 h [4, 11] [%ID/g] | tissue uptake at 4 h [4, 12] [%ID/g] | tissue uptake at 4 h [4, 13] [%ID/g] | tissue uptake at 4 h ([4]; lung, read-out: Uptake in lung) [%ID/g] | tissue uptake at 4 h [4, 14] [%ID/g] | tissue uptake at 4 h [4, 15] [%ID/g] | tissue uptake at 4 h [4, 16] [%ID/g] | tissue uptake at 4 h [4, 17] [%ID/g] | LogD ([2]; read-out: LogD) | tissue to tissue ratio at 4 h [4, 18] | further results |
| --- | --- | --- | --- | --- | --- | --- | --- | --- | --- | --- | --- | --- | --- | --- | --- | --- | --- | --- | --- | --- |
| CCCC[C@@H](C(=O)N[C@@H](CC(=O)O)C(=O)N[C@@H](Cc1cccc2ccccc12)C(=O)NC)N(C)C(=O)[C@H](Cc1c[nH]c2ccccc12)NC(=O)CNC(=O)[C@H](Cc1ccc(O)cc1)NC(=O)[C@H](C)NC(=O)[C@@H](CCC(=O)O)NC(=O)CN1CCN(CC(=O)O)CCN(CC(=O)O)CCN(CC(=O)O)CC1 [DOTA-MGS5[NHCH3]] | 40.9 ± 3.1 | −2.3 ± 0.2 | 98.1 ± 0.4 | – | – | – | – | – | – | – | – | – | – | – | – | – | – | – | – | – |
| CCCC[C@@H](C(=O)N[C@@H](CC(=O)O)C(=O)N[C@@H](Cc1ccc2ccccc2c1)C(N)=O)N(C)C(=O)[C@H](Cc1c[nH]c2ccccc12)NC(=O)CNC(=O)[C@H](Cc1ccc(O)cc1)NC(=O)[C@H](C)NC(=O)[C@@H](CCC(=O)O)NC(=O)CN1CCN(CC(=O)O)CCN(CC(=O)O)CCN(CC(=O)O)CC1 [DOTA-[2Nal^8]MGS5] | 34.6 ± 0.3 | −1.7 ± 0.2 | 92.0 ± 1.2 | – | – | – | – | – | – | – | – | – | – | – | – | – | – | – | – | – |
| CCCC[C@@H](C(=O)N[C@@H](CC(=O)O)C(=O)N(C)[C@@H](Cc1cccc2ccccc12)C(N)=O)N(C)C(=O)[C@H](Cc1c[nH]c2ccccc12)NC(=O)CNC(=O)[C@H](Cc1ccc(O)cc1)NC(=O)[C@H](C)NC(=O)[C@@H](CCC(=O)O)NC(=O)CN1CCN(CC(=O)O)CCN(CC(=O)O)CCN(CC(=O)O)CC1 [DOTA-[(N-Me)1Nal^8]MGS5] | 39.8 ± 4.2 | −2.4 ± 0.3 | 99.6 ± 0.1 | – | – | – | – | – | – | – | – | – | – | – | – | – | – | – | – | – |
| CCCC[C@@H](C(=O)N[C@@H](CC(=O)O)C(=O)N[C@@H](Cc1cccc2ccccc12)C(=O)NC)N(C)C(=O)[C@H](Cc1c[nH]c2ccccc12)NC(=O)CNC(=O)[C@H](Cc1ccc(O)cc1)NC(=O)[C@H](C)NC(=O)[C@@H](CCC(=O)O)NC(=O)CN1CCN(CC(=O)O)CCN(CC(=O)O)CCN(CC(=O)O)CC1 [[^111In]In-DOTA-MGS5[NHCH3], metal not drawn] | – | – | – | 69.9 ± 38.3 | 4.33 ± 0.56 | 4.16 ± 1.01 | 0.19 ± 0.08 | 0.08 ± 0.07 | 0.06 ± 0.02 | 0.59 ± 0.46 | 4.42 ± 1.15 | 0.36 ± 0.11 | 0.07 ± 0.01 | 0.04 ± 0.02 | 0.4 ± 0.04 | 0.13 ± 0.02 | 0.96 ± 0.17 | -2.33 ± 0.23 | – | fraction unbound at 24 h, 500 pmol/mL [1]: 0.591 |
| CCCC[C@@H](C(=O)N[C@@H](CC(=O)O)C(=O)N[C@@H](Cc1ccc2ccccc2c1)C(N)=O)N(C)C(=O)[C@H](Cc1c[nH]c2ccccc12)NC(=O)CNC(=O)[C@H](Cc1ccc(O)cc1)NC(=O)[C@H](C)NC(=O)[C@@H](CCC(=O)O)NC(=O)CN1CCN(CC(=O)O)CCN(CC(=O)O)CCN(CC(=O)O)CC1 [[^111In]In-DOTA-[2Nal^8]MGS5, metal not drawn] | – | – | – | 399 ± 89.6 | 3.66 ± 0.64 | 25.4 ± 4.45 | 0.17 ± 0.04 | 0.06 ± 0.003 | 0.08 ± 0.01 | 0.95 ± 0.26 | 4.21 ± 0.29 | 0.66 ± 0.07 | 0.13 ± 0.03 | 0.04 ± 0.01 | 1.84 ± 0.52 | 0.18 ± 0.05 | 7.03 ± 1.1 | -1.71 ± 0.19 | 6.04 ± 0.87 | remaining at 24 h, 1000 pmol/mL [3]: > 90% |
| CCCC[C@@H](C(=O)N[C@@H](CC(=O)O)C(=O)N[C@@H](Cc1cccc2ccccc12)C(N)=O)N(C)C(=O)[C@H](Cc1c[nH]c2ccccc12)NC(=O)CNC(=O)[C@H](Cc1ccc(O)cc1)NC(=O)[C@H](C)NC(=O)[C@@H](CCCCN)NC(=O)CN1CCN(CC(=O)O)CCN(CC(=O)O)CCN(CC(=O)O)CC1 [[^111In]In-DOTA-[DLys^1]MGS5, metal not drawn] ({DOTA}-[dK]AYGW[NMeNle]D[1Nal]-NH2) | – | – | – | 176 ± 31.9 | 4.69 ± 1.19 | 33.9 ± 9.53 | 0.56 ± 0.27 | 0.2 ± 0.09 | 0.22 ± 0.06 | 1.96 ± 0.87 | ~20 | 1.94 ± 0.52 | 0.3 ± 0.11 | 0.13 ± 0.05 | 2.27 ± 1.2 | 0.54 ± 0.12 | 7.73 ± 3.49 | -1.31 ± 0.11 | < 2 | – |
